Data on six compounds can be found in paper PMC4685272 (Scientific Reports, 2015).

Entries after “also recorded” stand apart in the source; their conditions may differ. Where two headings read alike, the source gives them in different places. Where a SMILES comes first, the peptide text is derived from it. Bridges are numbered along the chain shown (N, C = ends). Where no end group is shown, it is not given here.

One series has as its target T1, CD98_103-630 (Homo sapiens, UniProt P08195).
T1 construct: GST-CD98 (102-630) and the truncated GST-CD98 (304-414); purchased Novus Biologicals, Littleton, CO
T1 sequence (P08195 102-630 isoform P08195-1): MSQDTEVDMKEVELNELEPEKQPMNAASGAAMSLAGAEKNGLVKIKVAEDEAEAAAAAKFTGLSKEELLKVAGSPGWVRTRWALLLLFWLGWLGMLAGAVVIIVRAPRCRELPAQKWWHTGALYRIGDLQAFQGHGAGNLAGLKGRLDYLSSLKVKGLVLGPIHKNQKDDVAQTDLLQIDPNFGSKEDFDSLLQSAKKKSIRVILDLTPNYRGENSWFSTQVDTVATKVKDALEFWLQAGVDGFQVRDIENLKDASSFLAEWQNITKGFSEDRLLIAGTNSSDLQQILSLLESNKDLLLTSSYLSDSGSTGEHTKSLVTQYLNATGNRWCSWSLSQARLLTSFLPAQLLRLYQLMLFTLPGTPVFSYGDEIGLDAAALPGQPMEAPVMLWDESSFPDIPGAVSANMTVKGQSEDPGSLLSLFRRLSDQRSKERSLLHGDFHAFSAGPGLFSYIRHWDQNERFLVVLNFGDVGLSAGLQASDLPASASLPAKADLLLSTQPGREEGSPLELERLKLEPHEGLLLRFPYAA
The experiment in a line: SPR binding to immobilized CD98_103-630. The following applies: for Koff1 / Koff2 / Kon2: 25 °C, immobilized CD98_103-630; for Kon1: Biacore T200, 25 °C, HBS-EP pH 7.4, immobilized CD98_103-630. As to the method:
(§1) Surface Plasmon Resonance experiments were performed as previously described. For details, see SI. […]
(§2) Surface Plasmon resonance. Surface Plasmon resonance (SPR) experiments were performed using a Biacore T200 system (GE Healthcare, Uppsala, Sweden), at 25 °C . Binding assays were carried out between various CD98 sequences and both reduced and oxidized HBD3. The residue numbering […]
(§3) (Novus Biologicals, Littleton, CO) were immobilized on a CM4 and/or a CM5 sensor chip (research grade) by the standard amine coupling procedure, using HBS-EP buffer (HEPES 10 mM, NaCl 150 mM, EDTA 3 mM, Surfactant P20 0.005%, pH 7.4), as running buffer. CD98 was immobilized through activation of the sensor chip with 60 µL of N-hydroxysuccinimide and N-ethyl-N-(dimethylaminopropyl)-carbodiimide at 10 µL min-1, followed by a 30 µL injection of protein diluted in 10 mM sodium acetate buffer, pH 4.0. Unreacted activated groups were blocked by a 60 µL injection of 1 M ethanolamine at 10 µL min-1. The final amount of immobilized CD98 was typically between ~ 1500 and 5000 RU, corresponding to a protein concentration of 15 ÷ 50 mg/mL on the surface layer. Subsequently, the peptides or full-length HBD3 were injected at various concentrations (100 nM–100 µM), using HBS-EP as running buffer. The binding assays were performed under previously optimized conditions14, i.e. a contact time of 120 s, a dissociation time of 1000 s, and a flow rate of 30 µL min-1.
(§4) The SPR sensorgrams were analyzed by curve-fitting using the Biacore T200 Evaluation software.
(§5) Dose response curves were plotted using the SPR sensorgrams and the corresponding fit. Various
On the technique in general: Surface plasmon resonance follows binding to a sensor surface in real time, without labels.

Another series concerns the target T2, CD98_304-414 (Homo sapiens, UniProt P08195).
T2 construct: GST-CD98 (102-630) and the truncated GST-CD98 (304-414); purchased Novus Biologicals, Littleton, CO
T2 sequence (P08195 304-414 isoform P08195-1): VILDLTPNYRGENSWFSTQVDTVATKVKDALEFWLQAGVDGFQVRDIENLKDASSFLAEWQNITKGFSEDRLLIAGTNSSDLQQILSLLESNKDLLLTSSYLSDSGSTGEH
The series is described as follows: SPR binding to immobilized CD98_304-414. To be noted: 25 °C. As to the method: as §1, §2, §3, §4, §5

Another series relates to HSV-1. The experiment in a line: HSV infectivity on Vero cell monolayers (plaque count). The class given is cell-based, Herpes simplex virus. The following applies: for IC50: read-out: concentration showing 50% inhibition. As to the method:
The antiviral activity of the γ-core peptides γ and ε in oxidized and reduced form was evaluated, in comparison with reduced HBD3, against HIV and HSV. To establish in which phase, if any, the peptides inhibit virus infectivity, we performed experiments in four conditions: a) peptides incubated with the virus before being added to the target cells (“virus pre-treatment”), b) peptides incubated with the cells before exposure to the virus (“cell pre-treatment”), c) simultaneous addition of peptides and virus to the target cells (“co-treatment”), and d) peptides added to the virus-exposed cells (“post-treatment”).
The antiviral activity of the peptides against human immunodeficiency virus (HIV) and herpes simplex virus (HSV) was measured as previously described. For details, see SI. […]
Antiviral Activity against Herpes Simplex Virus (HSV). Vero cells were grown in Dulbecco’s modified Eagle’s medium (DMEM) supplemented with 10% fetal calf serum. HSV-1 carrying a lacZ gene driven by the cytomegalovirus (CMV) IE-1 promoter to express beta-galactosidase was propagated as described elsewhere12. All experiments were conducted in parallel with no-peptide controls. The effect of peptides on the inhibition of HSV infectivity on cell monolayers13 was assessed as follows: (i) For “co-exposure” experiments, the cells were incubated with increasing concentrations of the peptides (1, 5, 10, 20, 50, 100 and 150 µM) and with the viral inoculum for 45 min at 37°C. Non -penetrated viruses were inactivated by citrate buffer at pH 3.0. Monolayers were fixed, stained with 5-bromo-4-chloro-3-indolyl-beta-D-galactopyranoside (X-gal) and plaque […]
numbers were scored. Experiments were performed in triplicate and the % inhibition was calculated vs. the no-peptide control; (ii) For “virus pre-exposure” experiments, approximately 2 x 10^4 PFU of HSV-1 were incubated with increasing concentrations of the peptides for 45 min at 37°C, then titrated on Vero cell monolayers; iii) For “cell pre-exposure” experiments, Vero cells were incubated with increasing concentrations of the peptides for 30 min at 4°C, and infected with serial dilutions of HSV-1 for 45 min at 37°C; and iv) For “po st-exposure” experiments, Vero cell monolayers were incubated with virus for 45 minutes at 37°C and afterwards the peptides were added to the inoculum, followed by an additional incubation period of 30 minutes at 37°C. […]

For series [1], the system named is elastolytic protease cathepsins. The following applies: cited from earlier work. The text has this:
We asked whether the γ-core motif within HBDs represents a primordial HDP that evolved into the full-length molecules of today. To answer the question, we analyzed the structural and biological properties of the β-hairpin peptide of HBD3, which is the smallest substructure encompassing the γ-core motif (Fig. 1B).

The conditions of series [2]: cited from earlier work.
A further series is described as follows: human serum. The following applies: up to 60 min.
A short description of series [3]: human serum from an healthy donor [240 µl 20% (v/v) in PBS]. To be noted: 37 °C, up to 24 h.
Series [4] deals with elastolytic protease cathepsins. To be noted: cited from earlier work. This is another data set of the same source.
The nature of series [5]: Oxidative folding (disulfide formation) in Tris HCl pH 7.5. The class given is physicochemical. The following applies: Tris HCl 100 mM pH 7.5, open vessel, RP-HPLC-ESI-MS after iodoacetamide alkylation. As to the method: Reduced HBD3 was dissolved in Tris HCl 100 mM pH 7.5 (final peptide concentration 0.5 mg/mL) and shaken in an open vessel, with periodic withdrawal of aliquots. After alkylation of the free thiol groups with iodoacetamide solution, 100 μg of each the aliquot were analysed through RP-HPLC-ESI-MS to evaluate the oxidation status. The remaining 200 μg were purified via RP-HPLC to eliminate excess iodoacetamide, lyophilized, and subjected to tryptic digestion. Tryptic fragments were then indentified through RP-HPLC-ESI-MS. The same procedure, except tryptic digestion, was used for peptides γ and ε. Full details are given in the SI.

On to “human β-defensin 3 (GIINTLQKYYCRVRGGRCAVLSCLPKEEQIGKCSTRGRKCCRRKK; not fully specified (bridges); cysteine pairing not given here; UniProt P81534 23-67, looked up) [HBD3, reference compound]”, for which the figures for the Koff1 with CD98_103-630 and in the series with CD98_304-414 were 2.10 ± 0.03 ×10^−2 s^−1 and 1.26 ± 0.03 ×10^−2 s^−1, respectively. Besides, the Koff2 is recorded as 1.930 ± 0.03 ×10^−3 s^−1 with CD98_103-630 and 0.907 ± 0.007 ×10^−3 s^−1 in the series with CD98_304-414. In addition, the Kon2 in the series with CD98_103-630 is reported as 9.03 ± 0.06 x10^−3 s^−1; with CD98_304-414 it was 5.44 ± 0.06 x10^−3 s^−1. Further, the results for the Kon1 with CD98_103-630 and with CD98_304-414 were 8.51 ± 0.05 ×10^3 M^−1s^−1 and 4.65 ± 0.07 ×10^3 M^−1s^−1, respectively. For the same compound, the results for the IC50 in the series on HSV-1 (cell pre-treatment), with HSV-1 (co-exposure) and in the series with HSV-1 (virus pre-exposure) were 10 µM, 10 µM and 20 µM, respectively. Moreover, in the series on HSV-1 (post-exposure / post-treatment conditions), the “efficacy against HSV in words” value is reported as “no efficacy”. Also, the “degradation by cathepsins in words” value in series [1] was “rapidly degraded”. For the same compound, the “stability in human serum in words” value in series [2] is reported as “highly stable”.
Consider Ac-CLPKEEQIGKSSTRGRKSCRRKK-NH2, for which the fragment found entry in “human serum” is “disulfide-bridged form (oxidized peptide γ)”. The cleaved bond entry in [3] is recorded as “Arg20-Arg21, 6 h; also recorded: Lys22-Lys23, 6 h; also recorded: Cys19-Arg20, 6 h”.
On to Ac-CLPKEEQIGKSSTRGRKSC-NH2, for which, in series [3], the not cleaved result is listed as “found intact after 24 h incubation”.
On to “GIINTLQKYYCRVRGGRCAVLSCLPKEEQIGKCSTRGRKCCRRKK”, for which the not cleaved entry in “plasma” is listed as “stable in plasma”. In series [4], the fragment found entry is “the sequence from 22 to 45 amino acids residues of HBD3”.
Take [S^33,40]HBD3_23–41 [Peptide ε]: on CD98_103-630, the Koff1 is reported as 5.48 ± 0.03 ×10^−2 s^−1, the Koff2 was 0.128 ± 0.04 ×10^−3 s^−1, the Kon2 is recorded as 1.24 ± 0.04 x10^−3 s^−1 and the Kon1 is 0.73 ± 0.02 ×10^3 M^−1s^−1. Also, the “fold lower affinity for CD98 than HBD3” value at CD98_103-630 (from Table 1) was found to be 70 fold. At CD98_304-414, the Koff1 is reported as 5.38 ± 0.05 ×10^−2 s^−1, the Koff2 was 0.116 ± 0.06 ×10^−3 s^−1, the Kon1 is on record as 0.71 ± 0.04 ×10^3 M^−1s^−1 and the Kon2 is listed as 5.67 ± 0.05 x10^−3 s^−1.
Take `CC[C@H](C)[C@@H]1NC(=O)[C@H](CCC(N)=O)NC(=O)[C@H](CCC(=O)O)NC(=O)[C@H](CCC(=O)O)NC(=O)[C@H](CCCCN)NC(=O)[C@@H]2CCCN2C(=O)[C@H](CC(C)C)NC(=O)[C@H](CO)NC(=O)[C@H](CO)NC(=O)[C@H](CC(C)C)NC(=O)[C@H](C(C)C)NC(=O)[C@H](C)NC(=O)[C@@H](NC(C)=O)CSSC[C@@H](C(N)=O)NC(=O)[C@H](CCCCN)NC(=O)CNC1=O` [peptide δ, [S^23]HBD3_18–33] (Ac-CAVLSSLPKEEQIGKC-NH2; disulfide 1-16): the “oxidation state (intramolecular disulfide) after 3 h” value in series [5] is recorded as “still mostly reduced”.
